Measured values reported in patent publication US11247972B2, “Compositions and methods for treating toxoplasmosis, cryptosporidiosis, and other apicomplexan protozoan related diseases” (University of Washington through its Center for …, priority 2010, dated 2022).

How the values were obtained:
PfCDPK1 = PfCDPK1 (Plasmodium falciparum (isolate 3D7), UniProt P62344); assay: biochemical; settings: read-out: PfCDPK1 (% inhibition @ 3 uM)
PfCDPK4 = PfCDPK4 (Plasmodium falciparum (isolate 3D7), UniProt Q8IBS5); assay: biochemical; settings: read-out: PfCDPK4 (% inhibition @ 3 uM)

Row | SMILES | inhibition at 3 µM (PfCDPK1) | inhibition at 3 µM (PfCDPK4)
1 | COc1ccc(-c2nn(C(C)(C)C)c3ncnc(N)c23)cc1C [Compound 132] | 96% | 96%
2 | CCOc1ccc2cc(-c3nc(C(C)(C)C)n4ccnc(N)c34)ccc2c1 [Compound 69, 3-tert-butyl-1-(6-ethoxynaphthalen-2-yl)imidazo[1,5-a]pyrazin-8-amine] | 101% | 97%
3 | CC(C)Oc1ccc2cc(-c3nn(CC4CCNCC4)c4ncnc(N)c34)ccc2c1 [Compound 32, 3-(6-isopropoxynaphthalen-2-yl)-1-(piperidin-4-ylmethyl)-1H-pyrazolo[3,4-d]pyrimidin-4-amine] |  | 96%
4 | CC(C)(C)n1nc(-c2ccc3ncccc3c2)c2c(N)ncnc21 [Compound 143] | 97% | 97%
5 | CC(C)n1nc(-c2cc3ccccc3[nH]2)c2c(N)ncnc21 [Compound 24, 3-(1H-indol-2-yl)-1-isopropyl-1H-pyrazolo[3,4-d]pyrimidin-4-amine] |  | 93%
6 | O=C(NCCCCO)Nc1nc2ccc(C(=O)c3ccccc3)cc2[nH]1 [Compound 127] | 68% | 46%
7 | Cn1ncc2cc(-c3nn(CC4CCNCC4)c4ncnc(N)c34)ccc21 [Compound 121] | 93% | 93%
8 | Cc1ccc(S(=O)(=O)Nc2ccc(-c3nn(-c4ccccc4)c4ncnc(N)c34)cc2)cc1 [Compound 75, N-(4-(4-amino-1-phenyl-1H-pyrazolo[3,4-d]pyrimidin-3-yl)phenyl)-4-methylbenzenesulfonamide] | 75% | 5%
9 | NCCCCNC(=O)Nc1nc2ccc(C(=O)c3ccccc3)cc2[nH]1 [Compound 128] | 79% | 64%
10 | Nc1ncnc2c1c(Cc1cccc3ccccc13)nn2C1CCOCC1 [Compound 15, 3-(naphthalen-1-ylmethyl)-1-(tetrahydro-2H-pyran-4-yl)-1H-pyrazolo[3,4-d]pyrimidin-4-amine] |  | 11%
11 | CC(C)(C)n1nc(-c2ccc(-c3ccccc3)cc2)c2c(N)ncnc21 [Compound 136] | 90% | 16%
12 | CCCC(=O)Nc1ccc(-c2nn(C(C)(C)C)c3ncnc(N)c23)cc1 [Compound 61, N-(4-(4-amino-1-tert-butyl-1H-pyrazolo[3,4-d]pyrimidin-3-yl)phenyl)butyramide] | 101% | 80%
13 | CC(C)(C)n1nc(-c2ccc(NC(=O)C3CCCC3)cc2)c2c(N)ncnc21 [Compound 63, N-(4-(4-amino-1-tert-butyl-1H-pyrazolo[3,4-d]pyrimidin-3-yl)phenyl)cyclopentanecarboxamide] | 103% | 96%
14 | Nc1ncnc2c1c(-c1ccc(Cl)cc1)nn2CC1CCNCC1 [Compound 45, 3-(4-chlorophenyl)-1-(piperidin-4-ylmethyl)-1H-pyrazolo[3,4-d]pyrimidin-4-amine] | 101% | 82%
15 | Nc1ncnc2c1c(-c1ccc3ccccc3c1)nn2CC1CCNCC1 [Compound 147, 3-(naphthalen-2-yl)-1-(piperidin-4-ylmethyl)-1H-pyrazolo[3,4-d]pyrimidin-4-amine] | 100% | 99%
16 | O=C(c1ccccc1)c1ccc2nc(NC(=O)[C@@H]3CCCN3)[nH]c2c1 [Compound 107] | 65% | 52%
17 | CC(=O)N1CCC(Cn2nc(Cc3cccc4ccccc34)c3c(N)ncnc32)CC1 [Compound 5k, 1-(4-((4-amino-3-(naphthalen-1-ylmethyl)-1H-pyrazolo[3,4-d]pyrimidin-1-yl)methyl)piperidin-1-yl)ethanone] | 69% | 28%
18 | Nc1ncnc2c1c(-c1ccc(-c3ccccc3)c(F)c1)nn2CC1CCNCC1 [Compound 73, 3-(2-fluorobiphenyl-4-yl)-1-(piperidin-4-ylmethyl)-1H-pyrazolo[3,4-d]pyrimidin-4-amine] | 87% | 14%
19 | Nc1ncnc2c1c(-c1ccc3ncccc3c1)nn2CC1CCNCC1 [Compound 125] | 89% | 93%
20 | CCOc1ccc2cc(-c3nn(C(C)C)c4ncnc(N)c34)ccc2c1 [Compound 7r, 3-(6-ethoxynaphthalen-2-yl)-1-isopropyl-1H-pyrazolo[3,4-d]pyrimidin-4-amine] | 94% | 99%
21 | NCCCCCC(=O)Nc1nc2ccc(C(=O)c3ccccc3)cc2[nH]1 [Compound 105] | 71% | 76%
22 | CC(C)(C)n1nc(-c2ccc(NC(=O)c3ccccc3)cc2)c2c(N)ncnc21 [Compound 65, N-(4-(4-amino-1-tert-butyl-1H-pyrazolo[3,4-d]pyrimidin-3-yl)phenyl)benzamide] | 101% | 53%

Row | SMILES | inhibition at 3 µM (PfCDPK1) | inhibition at 3 µM (PfCDPK4)
23 | CC(C)n1nc(-c2cncnc2)c2c(N)ncnc21 [Compound 18, 1-isopropyl-3-(pyrimidin-5-yl)-1H-pyrazolo[3,4-d]pyrimidin-4-amine] |  | 4%
24 | CS(=O)(=O)N1CCC(n2nc(Cc3cccc4ccccc34)c3c(N)ncnc32)CC1 [Compound 5p, 1-(1-(methylsulfonyl)piperidin-4-yl)-3-(naphthalen-1-ylmethyl)-1H-pyrazolo[3,4-d]pyrimidin-4-amine] |  | 53%
25 | CC(C)n1nc(-c2cccc(Cc3ccccc3)c2)c2c(N)ncnc21 [Compound 7y, 3-(3-benzylphenyl)-1-isopropyl-1H-pyrazolo[3,4-d]pyrimidin-4-amine] |  | 17%
26 | Cn1nc(Cc2cccc3ccccc23)c2c(N)ncnc21 [Compound 5a, 1-methyl-3-(naphthalen-1-ylmethyl)-1H-pyrazolo[3,4-d]pyrimidin-4-amine] |  | 52%
27 | CC(=O)N1CCC(n2nc(Cc3cccc4ccccc34)c3c(N)ncnc32)CC1 [Compound 5j, 1-(4-(4-amino-3-(naphthalen-1-ylmethyl)-1H-pyrazolo[3,4-d]pyrimidin-1-yl)piperidin-1-yl)ethanone] |  | 48%
28 | Nc1ncnc2c1c(-c1ccc3cc(OCc4cccc(Cl)c4)ccc3c1)nn2CC1CCNCC1 [Compound 38, 3-(6-(3-chlorobenzyloxy)naphthalen-2-yl)-1-(piperidin-4-ylmethyl)-1H-pyrazolo[3,4-d]pyrimidin-4-amine] |  | 96%
29 | C#CCn1nc(Cc2cccc3ccccc23)c2c(N)ncnc21 [Compound 5b, 3-(naphthalen-1-ylmethyl)-1-(prop-2-ynyl)-1H-pyrazolo[3,4-d]pyrimidin-4-amine] |  | 20%
30 | Nc1ncnc2c1c(-c1ccc3cc(OCc4ccccc4Cl)ccc3c1)nn2CC1CCNCC1 [Compound 37, 3-(6-(2-chlorobenzyloxy)naphthalen-2-yl)-1-(piperidin-4-ylmethyl)-1H-pyrazolo[3,4-d]pyrimidin-4-amine] |  | 96%
31 | CC(C)n1nc(-c2cccc3c2sc2ccccc23)c2c(N)ncnc21 [Compound 7x, 3-(dibenzo[b,d]thiophen-4-yl)-1-isopropyl-1H-pyrazolo[3,4-d]pyrimidin-4-amine] |  | 21%
32 | COc1ccc2[nH]c(-c3nn(C(C)C)c4ncnc(N)c34)cc2c1 [Compound 27, 1-isopropyl-3-(5-methoxy-1H-indol-2-yl)-1H-pyrazolo[3,4-d]pyrimidin-4-amine] |  | 44%
33 | Nc1ncnc2c1c(Cc1cccc3ccccc13)nn2C1CCCC1 [Compound 13, 1-cyclopentyl-3-(naphthalen-1-ylmethyl)-1H-pyrazolo[3,4-d]pyrimidin-4-amine] |  | 25%
34 | Nc1ncnc2c1c(Cc1cccc3ccccc13)nn2Cc1ccccc1 [Compound 5e, 1-benzyl-3-(naphthalen-1-ylmethyl)-1H-pyrazolo[3,4-d]pyrimidin-4-amine] |  | 5%
35 | Nc1ncnc2c1c(Cc1cccc3ccccc13)nn2C1CCCCC1 [Compound 5f, 1-cyclohexyl-3-(naphthalen-1-ylmethyl)-1H-pyrazolo[3,4-d]pyrimidin-4-amine] |  | 15%
36 | CCN1CCC(n2nc(Cc3cccc4ccccc34)c3c(N)ncnc32)CC1 [Compound 5m, 1-(1-ethylpiperidin-4-yl)-3-(naphthalen-1-ylmethyl)-1H-pyrazolo[3,4-d]pyrimidin-4-amine] |  | 42%
37 | C=CCOc1ccc2cc(-c3nn(CC4CCNCC4)c4ncnc(N)c34)ccc2c1 [Compound 36, 3-(6-(allyloxy)naphthalen-2-yl)-1-(piperidin-4-ylmethyl)-1H-pyrazolo[3,4-d]pyrimidin-4-amine] |  | 99%
38 | CC(C)n1nc(Cc2ccc3ccccc3c2)c2c(N)ncnc21 [Compound 14, 1-isopropyl-3-(naphthalen-2-ylmethyl)-1H-pyrazolo[3,4-d]pyrimidin-4-amine] |  | 13%
39 | CC(C)n1nc(-c2ccnc(Cl)c2)c2c(N)ncnc21 [Compound 19, 3-(2-chloropyridin-4-yl)-1-isopropyl-1H-pyrazolo[3,4-d]pyrimidin-4-amine] |  | 14%
40 | CCCCOc1ccc2cc(-c3nn(CC4CCNCC4)c4ncnc(N)c34)ccc2c1 [Compound 35, 3-(6-butoxynaphthalen-2-yl)-1-(piperidin-4-ylmethyl)-1H-pyrazolo[3,4-d]pyrimidin-4-amine] |  | 99%
41 | CC(C)n1nc(-c2ccc3c(ccn3C)c2)c2c(N)ncnc21 [Compound 20, 1-isopropyl-3-(1-methyl-1H-indol-5-yl)-1H-pyrazolo[3,4-d]pyrimidin-4-amine] |  | 93%
42 | CC(C)n1nc(-c2cccnc2)c2c(N)ncnc21 [Compound 16, 1-isopropyl-3-(pyridin-3-yl)-1H-pyrazolo[3,4-d]pyrimidin-4-amine] |  | 13%
43 | CCCOc1ccc2cc(-c3nn(CC4CCNCC4)c4ncnc(N)c34)ccc2c1 [Compound 33, 1-(piperidin-4-ylmethyl)-3-(6-propoxynaphthalen-2-yl)-1H-pyrazolo[3,4-d]pyrimidin-4-amine] |  | 98%
44 | CC(C)n1nc(-c2ccc3c(c2)CCCO3)c2c(N)ncnc21 [Compound 7w, 3-(chroman-6-yl)-1-isopropyl-1H-pyrazolo[3,4-d]pyrimidin-4-amine] |  | 55%
